Experiment [1] deals with bFGF-induced SRE-luciferase expression in SWISS3T3 cells. Kind of experiment: SRE-luciferase reporter antagonist assay, bFGF induction. The conditions noted are these: 2.0 ng/ml bFGF; SWISS3T3/KZ67-G1-6 cells; 5 hours at 37° C. The format is cell-based. The procedure: (§1) Initial characterization of Brefeldin A as a non-peptide PDGF antagonist was made possible through an SRE-Luciferase high through-put assay system which identifies substances that are able to block expression of a serum response element (SRE)-luciferase reporter gene expressed in SWISS3T3 cells. […] The degree of antagonist specificity can be determined by comparing the resultant signal for the three growth factors (PDGF, bFGF, and EGF). […]
(§2) Folowing induction, luciferase activity was measured using a Promega luciferase assay kit (E1500; Promega Corp., Madison, Wis.) according to the assay kit protocol. […] The amount of luminescence (relative light units, RLU) was determined following a 1 second mix and a 1-3 integration of signal. Basal (uninduced) luciferase signal was substracted from all measurements,and the luciferase signal induced by test samples was expressed as a percentage of the signal from the controls. […]
A general note: Reporter assays use an easily measured gene product as a stand-in for the process of interest.

Experiment [2] concerns EGF-induced SRE-luciferase expression in SWISS3T3 cells. The experiment in a line: SRE-luciferase reporter antagonist assay, EGF induction. In kind it is cell-based. As to conditions: 4.5 ng/ml EGF; SWISS3T3/KZ67-G1-6 cells; 5 hours at 37° C. The procedure:
as §1, §2

Experiment [3] relates to 125I-PDGF-BB binding to rat SMCs. Kind of experiment: Inhibition of 125I-PDGF-BB binding to rat smooth muscle cells. As to conditions: 4° C.; for % Control Binding: negative control = 100, 90 min; for 125I PDGF-BB Bound (CPM): specific cpm, nonspecific subtracted, negative control 10006. The procedure:
Brefeldin A was analyzed for the ability to inhibit ^125 I-PDGF-BB binding to monolayers of rat SMCs. SMCs were plated at approximately 20,000 cells/well in 24-well culture dishes. The cells were used for assay 2-7 days after plating. The test compound was diluted in binding media (500 ml Hams F-12 (Gibco BRL), 12 ml 1M Hepes pH 7.4, 5 ml 100X PSN, 1 gm rabbit serum albumin (Sigma Chemical Co., St. Louis, Mo.) to the concentrations shown in Table 2, then added to the SMCs (1 ml/well) in triplicate. To the wells was then added 50 μl of a ^125 I-PDGF-BB binding stock solution. Binding media alone was used as the negative control, and the addition of 200 ng/ml of PDGF-BB was used to determine nonspecific binding for ^125 I-PDGF-BB. The cells were incubated for approximately 11/2 hours at 4° C., then washed with binding media to remove unbound ligand. The cells were then incubated with extraction buffer (20 mM Tris-HCl pH 8.0, 100 mM NaCl, 1 mM EDTA, 0.5% sodium deoxycholate, 10 mM NaI, 1% bovine serum albumin), and the extracts were harvested and counted in a gamma counter. The data are presented as specific cpm bound for ^125 I-PDGF-BB. Nonspecific binding, determined by the addition of 200 ng/ml of unlabeled PDGF-BB, was 853 cpm, and has been subtracted from the data presented.

For experiment [4], the system named is PDGF-BB mitogenic activity on baboon smooth muscle cells. Kind of experiment: Inhibition of PDGF-BB mitogenic activity on baboon smooth muscle cells ([3H] thymidine incorporation). In kind it is cell-based. The procedure:
Brefeldin A was analyzed for the ability to inhibit the mitogenic activity of PDGF on baboon smooth muscle cells. All mitogenesis assays performed on baboon vascular smooth muscle cells (BVSMCs) were done on primary cultures of cells between passages 13 and 20 in culture. The initial cultures were established from outgrowth of aortic tissue explants. Baboon smooth muscle cells were plated at approximately 20,000 cells per well, in DMEM supplemented with 10% fetal calf serum, into 24-well culture dishes. One day prior to use the culture media was removed, and 1 ml of Mito Media (Table 3) was added to each well to allow the cells to become quiescent. At the time of the experiment the cells were stimulated with PDGF-BB. […] 20X stock solutions were made for each of the PDGF concentrations by dilution in 10 mM acetic acid containing 0.25% albumin, and 50 μl of PDGF or dilution vehicle alone was added to the culture wells. To analyze the activity of Brefeldin A to neutralize PDGF-BB mitogenic activity, 1 ng/ml of PDGF was added to wells along with dilutions of Brefeldin A. The cells were incubated with the test samples for approximately 20 hours at 37° C. Fifty μl of a 20x stock solution was then added to each well to give a final concentration of 1 μCi/ml. The cells were incubated for 4 hours at 37° C., washed with PBS, then harvested with trypsin and counted for [^3 H] thymidine incorporation in a Wallac (Turku, Finland) Betaplate™ liquid scintillation counter. […] As part of this same experiment, the inhibitory potency of Brefeldin A was analyzed in the presence of heparin to determine if heparin is able to act in a combinatorial manner with Brefeldin A for inhibiting PDGF-BB mitogenic activity. Baboon smooth muscle cells were incubated in Brefeldin A with 1 ng/ml PDGF-BB in the presence of 0.5 U/ml of unfractionated heparin. The cells were pulse-labeled with [^3 H] thymidine as described above, and the level of [^3 H] thymidine incorporation was determined.
In general terms: Incorporation of labelled thymidine or its analogues reports DNA synthesis.

For `CC1CCCC=CC2CC(O)CC2C(O)C=CC(=O)O1` (centres unmarked) [Brefeldin A, 1,6,7,8,9,11a,12,13,14,14a-Decahydro-1,13-dihydroxy-6-methyl-4H-cyclopent[f]oxacyclotridecin-4-one], the “bFGF EC50” value in experiment [1] is on record as “No activity”. Further, the “EGF EC50” value in experiment [2] is “No activity”. Further, the entries for the “% Control Binding” value in experiment [3] (50 μM) and in experiment [3] (100 μM) were 92% and 89%, respectively. Also, the “125I PDGF-BB Bound (CPM)” value in experiment [3] (50 μM) was 9199 CPM; in experiment [3] (100 μM) it was 8879 CPM. In experiment [4] (1 ng/ml PDGF-BB), the “PDGF-BB mitogenic activity inhibition (in words)” value is “inhibited by Brefeldin A in a dose dependent fashion”. Moreover, the “3H Thymidine (CPM Incorporated), (+) 0.5 U/ml Heparin” value in experiment [4] (12.5 nM, 1 ng/ml PDGF-BB) was 854 CPM; in experiment [4] (25 nM, 1 ng/ml PDGF-BB), 684 CPM; in experiment [4] (50 nM, 1 ng/ml PDGF-BB), 44 CPM; in experiment [4] (100 nM, 1 ng/ml PDGF-BB), 31 CPM. Further, the “3H Thymidine (CPM Incorporated), (-) Heparin” value in experiment [4] (12.5 nM, 1 ng/ml PDGF-BB) is recorded as 1293 CPM; in experiment [4] (25 nM, 1 ng/ml PDGF-BB), 798 CPM; in experiment [4] (50 nM, 1 ng/ml PDGF-BB), 36 CPM; in experiment [4] (100 nM, 1 ng/ml PDGF-BB), 39 CPM. The IC50 in experiment [4] (Papio anubis, 1 ng/ml PDGF-BB, baboon smooth muscle cells, read-out: ED50 for the inhibition of PDGF-BB mitogenic activity) is about 25 nM. The “doses inhibiting PDGF-BB mitogenic activity versus doses required to inhibit PDGF binding to rat SMCs” value in experiment [4] (baboon SMC mitogenesis vs rat SMC binding, fold lower) came out at 1000 fold. Besides, the “inhibition of [3H] thymidine on addition of heparin (in words)” value in experiment [4] (with 0.5 U/ml unfractionated heparin, 1 ng/ml PDGF-BB, versus Brefeldin A alone) was “further inhibition of [^3 H] thymidine above that achieved by Brefeldin A alone”.

B1: PDGF-BB: platelet derived growth factor (protein, UniProt P01127 82-190, looked up)
Platelet-derived growth …: SLGSLTIAEPAMIAECKTRTEVFEISRRLIDRTNANFLVWPPCVEVQRCSGCCNNRNVQCRPTQVQLRPVQVRKIEIVRKKPIFKKATVTLEDHLACKCETVAAARPVT
In the case of B1, the “3H Thymidine (CPM Incorporated), (-) Heparin” value came out at 120 CPM in experiment [4] (PDGF-BB standard curve, 0.062 ng/ml); 226 CPM in experiment [4] (PDGF-BB standard curve, 0.125 ng/ml); 392 CPM in experiment [4] (PDGF-BB standard curve, 0.25 ng/ml); 959 CPM in experiment [4] (PDGF-BB standard curve, 0.5 ng/ml, 0 ng/ml gives 74); 1701 CPM in experiment [4] (PDGF-BB standard curve, 1 ng/ml).

Source of the values: patent publication US5618837A, “PDGF antagonists III” (ZymoGenetics, Inc., priority 1995, dated 1997).
